Source: publication PMC6273767, “Comparative Studies of Interactions between Fluorodihydroquinazolin Derivatives and Human Serum Albumin with Fluorescence Spectroscopy” (Molecules, 2016)

Molecular target: T1, human serum albumin (HSA) (Homo sapiens, UniProt P02768)
T1 construct: gene ALB; mature serum albumin, 585 residues (signal and propeptide removed)
Assay: tryptophan fluorescence quenching, modified Stern-Volmer
Type: binding
Details: 298 K, pH 7.4, 0.1 M Tris, 0.1 M NaCl, 1 µM HSA, excitation 280 nm; mainly site II (subdomain IIIA)
Source text: tryptophan fluorescence quenching, modified Stern-Volmer on human serum albumin (HSA)

T1 sequence (P02768 25-609): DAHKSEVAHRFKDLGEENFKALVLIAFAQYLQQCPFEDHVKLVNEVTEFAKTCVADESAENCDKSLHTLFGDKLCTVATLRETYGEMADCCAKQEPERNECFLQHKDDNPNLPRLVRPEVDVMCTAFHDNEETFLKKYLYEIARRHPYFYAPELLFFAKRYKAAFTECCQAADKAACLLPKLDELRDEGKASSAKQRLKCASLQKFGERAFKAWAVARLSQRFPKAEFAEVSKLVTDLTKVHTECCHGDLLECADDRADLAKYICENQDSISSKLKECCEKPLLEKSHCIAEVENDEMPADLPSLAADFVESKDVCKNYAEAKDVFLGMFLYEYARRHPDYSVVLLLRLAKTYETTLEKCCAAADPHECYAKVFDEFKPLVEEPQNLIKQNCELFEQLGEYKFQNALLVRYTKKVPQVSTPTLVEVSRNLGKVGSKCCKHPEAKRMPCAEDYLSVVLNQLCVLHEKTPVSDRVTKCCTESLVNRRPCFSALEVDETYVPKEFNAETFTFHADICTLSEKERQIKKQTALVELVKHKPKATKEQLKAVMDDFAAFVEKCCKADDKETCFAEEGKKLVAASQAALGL

Row | Ka (×10^4 M^-1) | Structure (SMILES)
1 | 2.33 × 10^4 M^−1 | CC(C)(C)CC(=O)N1c2ccc(Cl)cc2C(=O)N(N=Cc2ccc(F)cc2)C1c1ccccc1 (stereo not shown) [3b, 6-Chloro-1-(3,3-dimethylbutanoyl)-3-(4-fluorobenzylideneamino)-2-phenyl-2,3-dihydroquinazolin-4(1H)-one]
2 | 2.46 × 10^4 M^−1 | CC(C)(C)CC(=O)N1c2ccc(Cl)cc2C(=O)N(N=Cc2ccccc2F)C1c1ccccc1 (stereo not shown) [3d, 6-Chloro-1-(3,3-dimethylbutanoyl)-3-(2-fluorobenzylideneamino)-2-phenyl-2,3-dihydroquinazolin-4(1H)-one]
3 | 2.16 × 10^4 M^−1 | CC(C)(C)CC(=O)N1c2ccc(Cl)cc2C(=O)N(N=Cc2ccccc2)C1c1ccccc1 (stereo not shown) [3a, 3-(Benzylideneamino)-6-chloro-1-(3,3-dimethylbutanoyl)-2-phenyl-2,3-dihydroquinazolin-4(1H)-one]
4 | 2.73 × 10^4 M^−1 | CC(C)(C)CC(=O)N1c2ccc(Cl)cc2C(=O)N(N=Cc2cccc(F)c2)C1c1ccccc1 (stereo not shown) [3c, 6-Chloro-1-(3,3-dimethylbutanoyl)-3-(3-fluorobenzylideneamino)-2-phenyl-2,3-dihydroquinazolin-4(1H)-one]
